Assays:
SARS-CoV-2 3CL^pro [1] = target: T1, SARS-CoV-2 3CL^pro (Severe acute respiratory syndrome coronavirus 2, UniProt P0DTD1); test: FRET dose-response 3CL^pro inhibition assay; type: biochemical
SARS-CoV-2 3CL^pro [2] = target: T1, SARS-CoV-2 3CL^pro; test: Surface plasmon resonance binding to immobilised 3CL^pro
SARS-CoV-2 3CL^pro [3] = target: T1, SARS-CoV-2 3CL^pro; test: Initial FRET screening for 3CL^pro inhibition at 10 µM polyphenol; type: biochemical; conditions: 0.1 µM 3CL^pro, 16 µM FRET substrate, after 10 min

Row | SMILES | IC50 (SARS-CoV-2 3CL^pro [1]) [µM] | Kd (SARS-CoV-2 3CL^pro [2]) [µM] | inhibition of 3CL^pro (SARS-CoV-2 3CL^pro [3]) | SPR binding to immobilised 3CL^pro (in words) (SARS-CoV-2 3CL^pro [2]; SPR, up to 200 µM polyphenol, 25 °C)
1 | O=c1oc2c(O)c(O)cc3c(=O)oc4c(O)c(O)cc1c4c23 [Ellagic acid] | 11.8 | 311 ± 69 | – | –
2 | COc1cc(C(=O)O)cc(OC)c1O [Syringic acid] | – | – | no inhibition at all | –
3 | Oc1ccc(/C=C/c2cc(O)cc(O)c2)cc1 [Resveratrol] | 16.9 | – | – | non-specific binding
